Assay [1] deals with Ba/F3 cells expressing HER2 L869R. Description: Transduced Ba/F3 cell proliferation inhibitory activity, HER2 L869R. It is filed as cell-based. As to conditions: Mus musculus, BaF3, 72 hours. The protocol: (§1) For Ba/F3 cells, RPMI-1640 supplemented with 10% FBS and 5 ng/ml IL-3 (R&D Systems) was used. Transduced Ba/F3 cells were cultured by adding 1 μg/ml puromycin (Invitrogen) to the same medium.
(§2) 3000 to 5000 cells were aliquoted into each well of a white clear bottom 96 well plate (Corning) 24 hours before treatment with the compounds of Examples. The compounds of Examples were diluted in dimethyl sulfoxide (three-fold dilution, a total of 12 concentrations) and injected each in an amount of 1 μl to a final concentration of 0.2 nM to 5 μM. For the measurement of living cells, the cells were stored at room temperature for 10 minutes using CellTiter-Glo luminescent cell-viability reagent (Promega) in 72 hours after treatment with the compounds of Examples, and the luminescence intensity thereof was measured using a reader (SynergyNeo, Biotek). Each test was repeated three times. The result values were calculated as a cell growth rate (%) compared to those of the control group. A graph was created using the GraphPad Prism version 8.3.0 program, and GI50 values were calculated.

The test system of assay [2] is Ba/F3 cells expressing EGFR Del19/T790M. Description: Transduced Ba/F3 cell proliferation inhibitory activity, EGFR Del19/T790M. Conditions: Mus musculus, BaF3, 72 hours. In kind it is cell-based. On the procedure:
as §1, §2

For assay [3], the system named is Ba/F3 cells expressing HER2 T862A. Kind of assay: Transduced Ba/F3 cell proliferation inhibitory activity, HER2 T862A. In kind it is cell-based. Conditions: Mus musculus, BaF3, 72 hours. The protocol: as §1, §2
In assay [4] the test system is Ba/F3 cells expressing EGFR S768I. Kind of assay: Transduced Ba/F3 cell proliferation inhibitory activity, EGFR S768I. It is filed as cell-based. Conditions: Mus musculus, BaF3, 72 hours. On the procedure:
as §1, §2

Assay [5] concerns Ba/F3 cells expressing HER2 T798I. Kind of assay: Transduced Ba/F3 cell proliferation inhibitory activity, HER2 T798I. Conditions: Mus musculus, BaF3, 72 hours. In kind it is cell-based. On the procedure:
as §1, §2

The test system of assay [6] is BT-474 cells (HER2 overexpressing cell line). Kind of assay: BT-474 cell proliferation inhibitory activity (CellTiter-Glo, 120 hours). In kind it is cell-based. As to conditions: Homo sapiens. The method in brief:
(§3)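 SK-BR-3 and BT-474 cells were plated at 5000/well 48 h ahead, and N-87 (5000) and HaCaT (3000) 24 h ahead. Compounds were tested at 11 DMSO-diluted concentrations: 0.2 nM–10 μM for SK-BR-3/BT-474, […]–5 μM for N-87 and 0.8 nM–45 μM for HaCaT. GI50 came from growth % versus control, in triplicate.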

Assay [7] addresses T1, HER2 (Homo sapiens, UniProt P04626).
T1 construct: purchased Reaction Biology Corp
Kind of assay: Biochemical kinase assay for HER2 (Reaction Biology Corp), ATP 10 μM, 10-dose IC50. On the procedure: (§4) Biochemical kinase assays for HER2 and EGFR were performed by Reaction Biology Corp (San Diego, USA).

Assay [8] deals with Ba/F3 cells expressing EGFR L861Q. Description: Transduced Ba/F3 cell proliferation inhibitory activity, EGFR L861Q. In kind it is cell-based. As to conditions: Mus musculus, BaF3, 72 hours. On the procedure: as §1, §2
Assay [9] relates to HaCaT cells (EGFR expressing cell line). Kind of assay: HaCaT cell proliferation inhibitory activity (CellTiter-Glo, 72 hours). In kind it is cell-based. Conditions: Homo sapiens. The method in brief: as §3
Assay [10] has as its system Ba/F3 cells expressing HER2 L756S. Description: Transduced Ba/F3 cell proliferation inhibitory activity, HER2 L756S. It is filed as cell-based. Conditions: Mus musculus, BaF3; Ba/F3 HER2 L755S, 72 hours. On the procedure: as §1, §2
Assay [11] deals with T2, EGFR (Homo sapiens, UniProt P00533).
T2 construct: purchased Reaction Biology Corp
Description: Biochemical kinase assay for EGFR (Reaction Biology Corp), ATP 10 μM, 10-dose IC50. The protocol: as §4

The subject of assay [12] is Ba/F3 cells expressing HER2 WT. Description: Transduced Ba/F3 cell proliferation inhibitory activity, HER2 WT. It is filed as cell-based. As to conditions: Mus musculus, BaF3, 72 hours. The protocol:
as §1, §2

For assay [13], the system named is Ba/F3 cells expressing EGFR G719A/S768I. Description: Transduced Ba/F3 cell proliferation inhibitory activity, EGFR G719A/S768I. In kind it is cell-based. Conditions: Mus musculus, BaF3, 72 hours. On the procedure:
as §1, §2

Assay [14] has as its system N-87 cells (HER2 overexpressing cell line). Description: N-87 cell proliferation inhibitory activity (CellTiter-Glo, 72 hours). It is filed as cell-based. The method in brief: as §3
The subject of assay [15] is Ba/F3 cells expressing EGFR G719A. Description: Transduced Ba/F3 cell proliferation inhibitory activity, EGFR G719A. It is filed as cell-based. Conditions: Mus musculus, BaF3, 72 hours. The protocol: as §1, §2
Assay [16] has as its system Ba/F3 cells expressing EGFR WT. Kind of assay: Transduced Ba/F3 cell proliferation inhibitory activity, EGFR WT. It is filed as cell-based. As to conditions: Mus musculus, BaF3, 72 hours. On the procedure: as §1, §2
Assay [17] concerns SK-BR-3 cells (HER2 overexpressing cell line). Description: SK-BR-3 cell proliferation inhibitory activity (CellTiter-Glo, 120 hours). It is filed as cell-based. As to conditions: Homo sapiens. Put shortly: as §3

T1 sequence (P04626 23-1255): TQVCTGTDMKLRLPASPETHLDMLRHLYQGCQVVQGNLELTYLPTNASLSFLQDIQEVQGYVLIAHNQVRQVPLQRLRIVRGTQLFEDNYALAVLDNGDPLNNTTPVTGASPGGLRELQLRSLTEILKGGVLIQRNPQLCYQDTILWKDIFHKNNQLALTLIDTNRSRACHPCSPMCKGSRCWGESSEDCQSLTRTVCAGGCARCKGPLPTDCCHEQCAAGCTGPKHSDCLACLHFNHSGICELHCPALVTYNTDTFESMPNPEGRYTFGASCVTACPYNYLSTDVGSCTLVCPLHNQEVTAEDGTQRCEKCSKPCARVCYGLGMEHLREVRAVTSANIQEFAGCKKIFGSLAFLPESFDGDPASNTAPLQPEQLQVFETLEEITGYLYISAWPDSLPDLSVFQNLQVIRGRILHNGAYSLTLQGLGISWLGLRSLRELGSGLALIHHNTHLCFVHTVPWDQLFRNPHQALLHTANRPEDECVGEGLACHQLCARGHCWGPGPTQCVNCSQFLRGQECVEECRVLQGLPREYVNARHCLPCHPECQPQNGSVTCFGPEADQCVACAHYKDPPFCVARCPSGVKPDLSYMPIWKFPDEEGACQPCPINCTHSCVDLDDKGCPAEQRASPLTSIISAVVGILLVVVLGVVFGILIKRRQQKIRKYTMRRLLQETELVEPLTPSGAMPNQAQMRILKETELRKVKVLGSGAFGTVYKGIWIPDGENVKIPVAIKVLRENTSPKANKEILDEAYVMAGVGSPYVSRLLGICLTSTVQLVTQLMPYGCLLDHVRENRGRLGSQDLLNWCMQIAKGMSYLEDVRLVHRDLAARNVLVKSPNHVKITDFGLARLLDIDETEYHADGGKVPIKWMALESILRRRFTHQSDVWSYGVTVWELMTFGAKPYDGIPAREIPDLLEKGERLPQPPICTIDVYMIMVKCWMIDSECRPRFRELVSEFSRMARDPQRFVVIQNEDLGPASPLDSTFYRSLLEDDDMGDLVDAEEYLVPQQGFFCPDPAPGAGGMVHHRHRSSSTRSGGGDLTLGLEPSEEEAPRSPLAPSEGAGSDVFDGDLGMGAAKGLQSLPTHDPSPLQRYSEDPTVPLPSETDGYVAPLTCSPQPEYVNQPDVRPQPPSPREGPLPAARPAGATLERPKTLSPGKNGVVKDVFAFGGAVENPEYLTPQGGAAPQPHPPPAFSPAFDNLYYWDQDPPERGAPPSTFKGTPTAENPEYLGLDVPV
T2 sequence (P00533 25-1210): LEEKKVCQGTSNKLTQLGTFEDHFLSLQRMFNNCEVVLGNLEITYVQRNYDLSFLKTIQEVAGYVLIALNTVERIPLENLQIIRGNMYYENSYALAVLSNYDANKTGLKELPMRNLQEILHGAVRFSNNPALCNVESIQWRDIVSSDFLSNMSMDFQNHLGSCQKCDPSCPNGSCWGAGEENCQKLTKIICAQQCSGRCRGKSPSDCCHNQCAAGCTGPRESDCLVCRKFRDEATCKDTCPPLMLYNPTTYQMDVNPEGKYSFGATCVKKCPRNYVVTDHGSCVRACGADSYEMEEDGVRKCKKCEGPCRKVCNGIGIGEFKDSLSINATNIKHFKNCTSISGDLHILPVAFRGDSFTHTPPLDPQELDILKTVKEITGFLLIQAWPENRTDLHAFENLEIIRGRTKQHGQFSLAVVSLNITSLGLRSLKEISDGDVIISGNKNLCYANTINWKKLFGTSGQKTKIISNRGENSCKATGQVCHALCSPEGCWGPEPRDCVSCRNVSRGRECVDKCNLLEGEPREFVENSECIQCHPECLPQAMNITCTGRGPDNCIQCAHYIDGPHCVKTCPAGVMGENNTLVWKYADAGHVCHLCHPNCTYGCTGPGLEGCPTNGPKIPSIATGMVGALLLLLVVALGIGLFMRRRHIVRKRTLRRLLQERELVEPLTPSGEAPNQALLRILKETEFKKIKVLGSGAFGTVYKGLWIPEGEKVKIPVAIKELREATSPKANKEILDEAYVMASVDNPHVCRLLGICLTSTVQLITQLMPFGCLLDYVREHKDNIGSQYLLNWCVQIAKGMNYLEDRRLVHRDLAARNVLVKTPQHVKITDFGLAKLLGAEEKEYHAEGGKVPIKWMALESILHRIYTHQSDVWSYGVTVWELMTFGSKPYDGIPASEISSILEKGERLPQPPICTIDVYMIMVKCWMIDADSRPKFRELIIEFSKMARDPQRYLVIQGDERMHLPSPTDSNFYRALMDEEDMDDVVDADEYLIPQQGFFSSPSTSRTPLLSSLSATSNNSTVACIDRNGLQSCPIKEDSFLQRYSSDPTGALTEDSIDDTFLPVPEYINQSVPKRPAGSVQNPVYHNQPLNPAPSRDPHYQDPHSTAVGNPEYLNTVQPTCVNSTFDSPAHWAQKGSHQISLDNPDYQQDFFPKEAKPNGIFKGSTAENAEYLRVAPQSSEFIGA

In the case of `C=CC(=O)N1CCC(Oc2cc3c(Nc4cc(-c5ccc(F)cc5F)ccc4OC)ncnc3cc2OC)CC1` [Example 68, 1-(4-((4-((2′,4′-difluoro-4-methoxy-[1,1′-biphenyl]-3-yl)amino)-7-methoxy-quinazolin-6-yl)oxy)piperidin-1-yl)prop-2-en-1-one], the GI50 in assay [1] was ≤ 50 nM; in assay [2] it was ≤ 50 nM; in [3], ≤ 50 nM; in assay [4] it was 50 to 100 nM; in assay [5] it was 100 to 500 nM; in assay [6], ≤ 150 nM. Further, the GI50 was ≤ 50 nM in [8]; ≤ 150 nM in [9]; ≤ 50 nM in assay [10]; ≤ 50 nM in [12]; ≤ 50 nM in assay [13]; ≤ 150 nM in [14]. Further, the results for the GI50 in assay [15], in [16] and in assay [17] were ≤ 50 nM, 50 to 100 nM and ≤ 150 nM, respectively. In addition, the half-inhibitory concentration (IC50) in [7] and in assay [11] was ≤ 50 nM each time.
For the molecule `C=CC(=O)N1CCC(Oc2cc3c(Nc4cc(-c5ccco5)ccc4OC)ncnc3cc2OC)CC1` [Example 80, 1-(4-((4-((5-(furan-2-yl)-2-methoxyphenyl)amino)-7-methoxy-quinazolin-6-yl)oxy)piperidin-1-yl)prop-2-en-1-one], the concentration for 50% growth inhibition (GI50) is ≤ 50 nM in [1]; ≤ 50 nM in [2]; ≤ 50 nM in assay [3]; ≤ 50 nM in assay [4]; ≤ 50 nM in [5]; ≤ 150 nM in assay [6]. Besides, the GI50 in [8] was ≤ 50 nM; in assay [9] it was ≤ 150 nM; in assay [10], ≤ 50 nM; in [12], ≤ 50 nM; in [13], ≤ 50 nM; in assay [15] it was ≤ 50 nM. In addition, the concentration for 50% growth inhibition (GI50) was ≤ 50 nM in assay [16] and ≤ 150 nM in assay [17]. The IC50 in assay [7] was ≤ 50 nM.
On to `C=CC(=O)N1CCC(Nc2cc3c(Nc4cc(-c5ccco5)ccc4OC)ncnc3cc2OCC)CC1` [Example 300, 1-(4-((7-ethoxy-4-((5-(furan-2-yl)-2-methoxyphenyl)amino)quinazolin-6-yl)amino)piperidin-1-yl)prop-2-en-1-one], for which the GI50 in assay [3] was ≤ 50 nM; in assay [5], 100 to 500 nM; in [6] it was ≤ 150 nM; in assay [9] it was ≤ 150 nM; in assay [10], ≤ 50 nM; in assay [12], ≤ 50 nM. Moreover, the concentration for 50% growth inhibition (GI50) in assay [14] is ≤ 150 nM.
As to `COc1cc2ncnc(Nc3cc(-c4ccc(F)cc4F)ccc3OC)c2cc1NC(=O)/C=C/[C@H]1CCCN1C` [Example 305, (R,E)-N-(4-((2′,4′-difluoro-4-methoxy-[1,1′-biphenyl]-3-yl)amino)-7-methoxyquinazolin-6-yl)-3-(1-methylpyrrolidin-2-yl)acrylamide], the GI50 is ≤ 50 nM in assay [3]; ≤ 50 nM in assay [5]; ≤ 150 nM in [6]; ≤ 150 nM in [9]; ≤ 50 nM in assay [10]; ≤ 50 nM in assay [12]. Also, the 50% growth inhibitory concentration (GI50) in assay [14] and in [17] was ≤ 150 nM in each case. The IC50 in assay [7] and in assay [11] was ≤ 50 nM each time.
For `COc1cc2ncnc(Nc3cc(-c4ccco4)ccc3OC)c2cc1NC(=O)/C=C/[C@H]1CCCN1C` [Example 306, (R,E)-N-(4-((5-(furan-2-yl)-2-methoxyphenyl)amino)-7-methoxyquinazolin-6-yl)-3-(1-methylpyrrolidin-2-yl)acrylamide], the GI50 in [4] was ≤ 50 nM; in assay [6], ≤ 150 nM; in assay [9] it was ≤ 150 nM; in assay [14], ≤ 150 nM; in [16], ≤ 50 nM; in assay [17], ≤ 150 nM. In addition, the IC50 in assay [7] and in assay [11] was ≤ 50 nM each time.
For `COc1cc2ncnc(Nc3cc(-c4ccco4)ccc3OC)c2cc1NC(=O)/C(F)=C\[C@H]1CCCN1C` [Example 307, (R,E)-2-fluoro-N-(4-((5-(furan-2-yl)-2-methoxyphenyl)amino)-7-methoxyquinazolin-6-yl)-3-(1-methylpyrrolidin-2-yl)acrylamide], the concentration for 50% growth inhibition (GI50) was ≤ 50 nM in assay [4]; ≤ 150 nM in assay [6]; ≤ 150 nM in assay [9]; ≤ 150 nM in assay [14]; ≤ 50 nM in assay [16]; ≤ 150 nM in assay [17].
